Results from PMC7113892 (Antiviral Research, 2017).

Key:
[1] = target: human RNA N7-methyltransferase (RNMT) (Homo sapiens, UniProt O43148); assay: biochemical
DENV-2 NS5-RdRp = DENV-2 NS5-RdRp (Dengue virus type 2, UniProt P14340); type: biochemical; settings: 50 μM

human RNA N7-methyltransferase (RNMT), sequence (O43148 whole entry, looked up): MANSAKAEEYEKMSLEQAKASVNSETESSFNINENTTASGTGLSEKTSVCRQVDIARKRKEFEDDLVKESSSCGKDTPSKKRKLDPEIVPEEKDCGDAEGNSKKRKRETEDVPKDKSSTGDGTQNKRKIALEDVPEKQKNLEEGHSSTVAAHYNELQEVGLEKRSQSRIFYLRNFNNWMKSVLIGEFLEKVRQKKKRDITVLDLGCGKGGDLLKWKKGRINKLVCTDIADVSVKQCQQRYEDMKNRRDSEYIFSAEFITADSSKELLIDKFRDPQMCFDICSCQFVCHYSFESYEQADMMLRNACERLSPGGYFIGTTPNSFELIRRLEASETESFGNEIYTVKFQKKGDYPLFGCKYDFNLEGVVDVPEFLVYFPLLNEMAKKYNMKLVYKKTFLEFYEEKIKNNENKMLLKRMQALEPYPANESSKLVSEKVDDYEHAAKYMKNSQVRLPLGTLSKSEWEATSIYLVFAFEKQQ

For `Nc1ncnc2c1ncn2[C@@H]1O[C@H](C[C@@H](N)CC[C@H](N)C(=O)O)[C@@H](O)[C@H]1O` [Sinefungin], the IC50 [1] was < 50 nM and the “Inhibition of RdRp activity of DENV NS5 (in words)” value (DENV-2 NS5-RdRp) was “no inhibition detected”.
